The results in this text go back to patent publication EP3228630A1, “COMBINATION OF AN APELIN ANTAGONIST AND AN ANGIOGENESIS INHIBITOR FOR THE TREATMENT OF CANCER” (IMBA-Institut für Molekulare Biotechnologie GmbH, priority 2016, dated 2017).

The subject of the assay is primary human endothelial cells (HUVECs). Conditions: Apelin Pyr13 500nM, human VEGF 25ng/mL, 5 minutes, serum-free media.

Experimental: Antibody array pathway analysis: For the human phospho-kinase antibody array (R&D Systems), primary HUVEC (human umbilical vein endothelial cells) were cultured overnight with media supplemented with 0.75% of fetal bovine serum (FBS) followed by 15 minutes of media with 0.5%. The cells were then stimulated in serum-free media with either Apelin Pyr13 (BACHEM H-4568, 500nM), human VEGF (Peprotech, 25ng/mL), both of them or either for 5 minutes. 100 µg of cell lysate were added to the membrane and incubated overnight at 4°C with gentle agitation, following the manufacturer instructions. Films were scanned and the intensity of the bands quantified using ImageJ.

On to apelin-13, for which the “pathways regulated (phospho-antibody array)” value is given as “regulate similar pathways in endothelial cells”.
